Patent US12162819B2, “Ionizable lipid compounds” (Beijing Jitai Pharmaceutical Technology Co., Ltd., priority 2022, dated 2024)

Experiments:
[1] = Encapsulation efficiency of lipid nanoparticles, Quant-It RiboGreen RNA Assay; assay type: physicochemical; details: lipid nanoparticle with the cationic lipid, luciferase mRNA
Method: (§1) Lipid nanoparticles were prepared by (1) dissolving and mixing ionizable lipid compounds, cholesterol, phospholipids and polyethylene glycolated lipids in ethanol at (molar percentages) 50%, 38.5%, 10% and 1.5%, respectively; (2) dissolving the mRNA active ingredient in 25 mM sodium acetate solution (pH=4.5); (3) using an automated high-throughput microfluidic system to mix the organic phase containing the lipid mixture and the aqueous phase containing the mRNA component in the flow ratio range of 1:1 to 1:4 at a mixing speed of 10 mL/min to 18 mL/min; (4) the prepared lipid nanoparticles (N/P ratio of 6) were diluted with phosphate buffer solution and the nanoparticle solutions were ultrafiltered to the original preparation volume using ultrafiltration tubes (purchased from Millipore) with a cut-off molecular weight of 30 kDa; and (5) the obtained nanoparticles were filtered through a sterile 0.2 μm filter membrane and then stored in a sealed glass vial at low temperature.
(§2) The particle size and particle size dispersity index (PDI) of the prepared lipid nanoparticles were measured using a Zetasizer Pro (purchased from Malvern Instruments Ltd) and a DynaPro NanoStar (purchased from Wyatt) dynamic light scattering instrument. The degree of RNA encapsulation by lipid nanoparticles was characterized by the Encapsulation Efficiency %, which reflects the degree of binding of lipid nanoparticles to RNA fragments. This parameter was measured by the method of Quant-It™ RiboGreen RNA Assay (purchased from Invitrogen). Lipid nanoparticle samples were diluted in TE buffer (10 mM Tris-HCl, 1 mM EDTA, pH=7.5). A portion of the sample solution was removed, to which 0.5% Triton (Triton X-100) was added, and then allowed to stand at 37° C. for 30 minutes. Immediately after the addition of RIBOGREEN® reaction solution, the fluorescence values were read on a Varioskan LUX multifunctional microplate reader (purchased from Thermofisher) at 485 nm for absorption and 528 nm for emission to give the encapsulation efficiency values.

[2] = Particle size and PDI of lipid nanoparticles by dynamic light scattering; assay type: physicochemical; details: lipid nanoparticle with the cationic lipid, cholesterol, DSPC, DMG-PEG2000 (50/38.5/10/1.5 mol%), luciferase mRNA, N/P 6
Method: as §1, §2

SMILES | Encapsulation efficiency (%) [1] | Particle size (nm) [2] | Particle size dispersity (PDI) [2]
CCCCCC/C=C\CCOC(=O)C(C)(C)CCCCCC(CCCCCC(C)(C)C(=O)OCC/C=C\CCCCCC)OC(=O)CCCN(C)C [Compound 27] | 88.99% | 105.70 nm | 0.05
CCCCCCCCCCNC(=O)C(C)(C)CCCCCC(CCCCCC(C)(C)C(=O)NCCCCCCCCCC)OC(=O)CCN(C)C [Compound 8] | 60.36% | 127.82 nm | 0.07
CCCCCCCCCN(CCCCCCCCC)C(=O)C(C)(C)CCCCCC(CCCCCC(C)(C)C(=O)N(CCCCCCCCC)CCCCCCCCC)OC(=O)CCN(C)C [Compound 12] | 85.02% | 89.34 nm | 0.07
CCCCCCC#CCCOC(=O)C(C)(C)CCCCCC(CCCCCC(C)(C)C(=O)OCCC#CCCCCCC)OC(=O)CCCN(C)C [Compound 24] | 60.98% | 133.72 nm | 0.04
CCCCCCC/C=C\COC(=O)C(C)(C)CCCCCC(CCCCCC(C)(C)C(=O)OC/C=C\CCCCCCC)OC(=O)CCCN(C)C [Compound 26] | 81.29% | 96.69 nm | 0.05
CCCCCCCCCOC(=O)C(C)(C)CCCCCC(CCCCCC(C)(C)C(=O)OCCCCCCCCC)OC(=O)CCN(C)C [Compound 3] | 86.88% | 133.80 nm | 0.04
CCCCCCCCCCOC(=O)C(C)(C)CCCCCC(CCCCCC(C)(C)C(=O)OCCCCCCCCCC)OC(=O)CCN1CCOCC1 [Compound 90] | 83.21% | 18.17 nm | 0.05
CCCCCCCC#CCOC(=O)C(C)(C)CCCCCC(CCCCCC(C)(C)C(=O)OCC#CCCCCCCC)OC(=O)CCCN(C)C [Compound 23] | 70.22% | 151.35 nm | 0.07
CCCCCCCCCCCCNC(=O)C(C)(C)CCCCCC(CCCCCC(C)(C)C(=O)NCCCCCCCCCCCC)OC(=O)CCN(C)C [Compound 10] | 53.83% | 118.59 nm | 0.07
CCCCCCCCCCOC(=O)C(C)(C)CCCCCC(CCCCCC(C)(C)C(=O)OCCCCCCCCCC)OC(=O)CCN1CCCC1 [Compound 92] | 91.66% | 107.56 nm | 0.05
CC(C)CCCC(C)CCOC(=O)C(C)(C)CCCCCC(CCCCCC(C)(C)C(=O)OCCC(C)CCCC(C)C)OC(=O)CCN(C)C (stereo not drawn) [Compound 6] | 90.26% | 106.18 nm | 0.05
CCCCCCCCCCSC(=O)C(C)(C)CCCCCC(CCCCCC(C)(C)C(=O)OCCCCCCCCC)OC(=O)CCCN(C)C (stereo not drawn) [Compound 40] | 97.06% | 83.90 nm | 0.05
CCCCCCCCCCOC(=O)C(C)(C)CCCCCC(CCCCCC(C)(C)C(=O)OCCCCCCCCCC)OC(=O)CN(C)C [Compound 17] | 30.95% | 81.43 nm | 0.12
CCCCCCCCCCOC(=O)C(C)(C)CCCCCC(CCCCCC(C)(C)C(=O)OCCCCCCCCCC)OC(=O)CCN(C)C [Compound 1] | 91.54% | 80.07 nm | 0.06
CCCCC#CCCCCOC(=O)C(C)(C)CCCCCC(CCCCCC(C)(C)C(=O)OCCCCC#CCCCC)OC(=O)CCCN(C)C [Compound 25] | 32.43% | 236.90 nm | 0.06
CCCCCCCCCCSC(=O)C(C)(C)CCCCCC(CCCCCC(C)(C)C(=O)SCCCCCCCCCC)OC(=O)CCCCCN(C)C [Compound 36] | 97.52% | 88.33 nm | 0.07
CCCCCCCCOC(=O)C(C)(C)CCCCCC(CCCCCC(C)(C)C(=O)OCCCCCCCC)OC(=O)CCCN(C)C [Compound 19] | 67.96% | 135.15 nm | 0.19
CCCCCCCCOC(=O)C(C)(C)CCCCCC(CCCCCC(C)(C)C(=O)OCCCCCCCC)OC(=O)CCN(C)C [Compound 2] | 79.14% | 229.35 nm | 0.03

Next, values leading:

Encapsulation efficiency (%) [1] | Particle size (nm) [2] | Particle size dispersity (PDI) [2] | SMILES
91.76% | 77.12 nm | 0.04 | CCCCCCCC#CCOC(=O)C(C)(C)CCCCCC(CCCCCC(C)(C)C(=O)OCCCC(CCCCC)CCCCC)OC(=O)CCCN(C)C (stereo not drawn) [Compound 115]
79.88% | 83.10 nm | 0.05 | CCCCCCC(CCCCCC)CCOC(=O)CCC(C)(C)CCCC(CCCC(C)(C)CCC(=O)OCCC(CCCCCC)CCCCCC)OC(=O)CCCN(C)C [Compound 128]
92.27% | 84.98 nm | 0.05 | CCCCCCCCCCOC(=O)C(C)(C)CCCCC(CCCCC(C)(C)C(=O)OCC(CCCCC)CCCCCCC)OC(=O)CCCN(C)C (stereo not drawn) [Compound 123]
83.74% | 99.54 nm | 0.05 | CCCCCCCCCSC(=O)C(C)(C)CCCCCC(CCCCCC(C)(C)C(=O)SCCCCCCCCC)OC(=O)C1CCN(C(C)C)CC1 [Compound 107]
91.76% | 96.72 nm | 0.07 | CCCCCCCCCOC(=O)C(C)(C)CCCCC(CCCCC(C)(C)C(=O)OCC(CCCCC)CCCCCCC)OC(=O)CCCN(C)C (stereo not drawn) [Compound 122]
90.03% | 102.18 nm | 0.03 | CCCCCCCCCOC(=O)C(C)(C)CCCCCC(CCCCCC(C)(C)C(=O)OCCCCCCCCC)OC(=O)C1CCN(C)CC1 [Compound 102]
57.87% | 112.08 nm | 0.06 | CCCCCCCC(CCCCCCC)COC(=O)CCC(C)(C)CCCC(CCCC(C)(C)CCC(=O)OCC(CCCCCCC)CCCCCCC)OC(=O)CCCN(C)C [Compound 129]
93.87% | 88.33 nm | 0.07 | CCCCCCCCCOC(=O)C(C)(C)CCCCCC(CCCCCC(C)(C)C(=O)OCC#CC(CCCCCC)CCCCCC)OC(=O)CCCN(C)C (stereo not drawn) [Compound 118]
93.28% | 107.87 nm | 0.13 | CCCCCCC/C=C\COC(=O)CC(C)(C)CCCCC(CCCCC(C)(C)CC(=O)OCC(CCCCC)CCCCCCC)OC(=O)CCCN(C)C (stereo not drawn) [Compound 98]
79.63% | 245.33 nm | 0.20 | CCCCCCCCCOC(=O)CCCCCCC(CCCCCCC(=O)OCC(CCCCC)CCCCCCC)OC(=O)CCCN(C)C (stereo not drawn) [Compound D2, reference compound]
94.41% | 121.05 nm | 0.08 | CCCCCCCCCSC(=O)C(C)(C)CCCCCC(CCCCCC(C)(C)C(=O)OCC(CCCCC)CCCCCCC)OC(=O)CC1CCN(C)CC1 (stereo not drawn) [Compound 112]
89.45% | 95.69 nm | 0.07 | CCCCCCCCCOC(=O)C(C)(C)CCCCCCC(CCCCCCC(C)(C)C(=O)OCC(CCCCC)CCCCCCC)OC(=O)CCCN(C)C (stereo not drawn) [Compound 125]
94.35% | 133.76 nm | 0.06 | CCCCCCCCCOC(=O)C(C)(C)CCCCCCC(CCCCCCC(C)(C)C(=O)OCC(CCCCC)CCCCCCC)OC(=O)CCCCN(C)C (stereo not drawn) [Compound 126]
92.63% | 121.41 nm | 0.05 | CCCCCCCCCSC(=O)C(C)(C)CCCCCC(CCCCCC(C)(C)C(=O)SCCCCCCCCC)OC(=O)CC1CCN(C)CC1 [Compound 108]
89.36% | 88.62 nm | 0.05 | CCCCCCCC#CCOC(=O)C(C)(C)CCCCCC(CCCCCC(C)(C)C(=O)OCC(CCCCC)CCCCCCC)OC(=O)CCCN(C)C (stereo not drawn) [Compound 116]
87.11% | 101.04 nm | 0.06 | CCCCCCCCCSC(=O)C(C)(C)CCCCCC(CCCCCC(C)(C)C(=O)SCCCCCCCCC)OC(=O)CC1CCN(CC)CC1 [Compound 109]
95.12% | 141.30 nm | 0.06 | CCCCCCCCCOC(=O)C(C)(C)CCCCCC(CCCCCC(C)(C)C(=O)OCC(CCCCC)CCCCCCC)OC(=O)CC1CCN(C)CC1 (stereo not drawn) [Compound 111]
